{"source": "paper PMC11628281", "about": "“A sulfonimide derivative of bezafibrate as a dual inhibitor of cyclooxygenase-2 and PPARα” (Frontiers in Pharmacology, 2024)", "target": "T1, cyclooxygenase (COX)-2 (Homo sapiens, UniProt P35354)", "T1 construct": "gene PTGS2", "T1 sequence (P35354 18-604)": "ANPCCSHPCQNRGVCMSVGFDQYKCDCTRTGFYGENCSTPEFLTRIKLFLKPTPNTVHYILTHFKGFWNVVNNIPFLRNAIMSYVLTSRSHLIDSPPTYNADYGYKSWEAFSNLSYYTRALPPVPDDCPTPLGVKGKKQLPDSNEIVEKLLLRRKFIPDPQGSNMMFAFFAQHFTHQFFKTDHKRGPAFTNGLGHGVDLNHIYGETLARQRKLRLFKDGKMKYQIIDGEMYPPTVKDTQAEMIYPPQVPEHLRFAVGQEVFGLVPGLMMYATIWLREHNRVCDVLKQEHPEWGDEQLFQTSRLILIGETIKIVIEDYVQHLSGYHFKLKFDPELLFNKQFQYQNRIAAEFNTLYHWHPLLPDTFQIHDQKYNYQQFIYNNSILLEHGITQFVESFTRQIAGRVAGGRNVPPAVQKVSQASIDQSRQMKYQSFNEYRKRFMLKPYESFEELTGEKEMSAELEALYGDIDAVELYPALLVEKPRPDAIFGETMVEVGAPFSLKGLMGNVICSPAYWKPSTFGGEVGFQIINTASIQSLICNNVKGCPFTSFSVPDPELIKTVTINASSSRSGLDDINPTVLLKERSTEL", "test": "LPS-stimulated human whole blood PGE2 (RIA); also HCA7 cells (COX-2 only), IC50 […], with washout", "data": [{"smiles": "CC(C)(Oc1ccc(CCNC(=O)c2ccc(Cl)cc2)cc1)C(=O)NS(=O)(=O)c1ccccc1", "note": "[compound 6, AA520]", "values": [{"measurement": "IC50", "result": 100, "unit": "nM"}]}]}
